Measurements: PubChem BioAssay AID294 (DTP/NCI, 2004)
Where “and” joins values, the source holds several entries; their conditions need not be identical. Equal values may be shown once.

Test system: MX-1 breast xenograft, nude mice, tumor weight change
Assay: NCI In Vivo Anticancer Drug Screen. Data for tumor model Human Mammary Carcinoma MX-1 Xenograft (subcutaneous) in NU/NU Swiss (nude) mice
Details: endpoint: optimum tumor weight change, schedule: Q04DX003 (ip), higher = larger tumour
Experimental: The antitumor activity of compounds was measured in mice bearing transplantable tumors. Survival or tumor size were measured and the results are expressed as the measurement made in the treated group (T) divided by the measurement made in the vehicle treated control group (C). The tumor model used in this assay is Human Mammary Carcinoma MX-1 Xenograft (subcutaneous) in NU/NU Swiss (nude) mice

[1] = dose: 50.0 mg/kg/injection, vehicle: Klucel (hydroxypropylcellulose) (HPC)
[2] = dose: 100.0 mg/kg/injection, vehicle: Klucel (hydroxypropylcellulose) (HPC)
[3] = dose: 200.0 mg/kg/injection, vehicle: Klucel (hydroxypropylcellulose) (HPC)
[4] = dose: 25.0 mg/kg/injection, vehicle: water
[5] = dose: 12.5 mg/kg/injection, vehicle: saline with Tween-80
[6] = dose: 400.0 mg/kg/injection, vehicle: saline
[7] = dose: 200.0 mg/kg/injection, vehicle: saline

CN(C)N=Nc1cn[nH]c1C(N)=O
T/C [1]: 100 % of control
T/C [2]: 98 % of control
T/C [3]: 71 % of control
T/C (dose: 400.0 mg/kg/injection, vehicle: Klucel (hydroxypropylcellulose) (HPC)): 82 % of control

CN1N=C(N)c2cn(C3OC(COP(=O)(O)O)C(O)C3O)c3ncnc1c23 (configuration not stated)
T/C [4]: 102 % of control

O=C/C(Cl)=C(/Cl)C(=O)O
T/C [5]: 96 % of control

N=C(N)SCc1c2ccccc2c(CSC(=N)N)c2ccccc12
T/C (dose: 25.0 mg/kg/injection, vehicle: suspension in saline): 83 % of control
T/C (dose: 50.0 mg/kg/injection, vehicle: suspension in saline): 123 % of control

O=C[C@@H](CO)O[C@H](C=O)n1cnc2c(=O)[nH]cnc21
T/C [6]: 29 % of control

O=Cc1ccc(O)c(O)c1
T/C (dose: 50.0 mg/kg/injection, vehicle: saline with Tween-80): 63 % of control
T/C (dose: 400.0 mg/kg/injection, vehicle: saline with Tween-80): 89 % of control

COc1cccc2c1C(=O)c1c(O)c3c(c(O)c1C2=O)C[C@@](O)(C(=O)CO)C[C@@H]3OC1CC(N)C(O)C(C)O1 (some centres not stated)
T/C (dose: 1.0 mg/kg/injection, vehicle: water): 97 % of control

CN(C)N=Nc1ccccc1
T/C [1]: 221 % of control

CN1CCN(CCCN2c3ccccc3Sc3ccc(C(F)(F)F)cc32)CC1
T/C (dose: 50.0 mg/kg/injection, vehicle: saline): 58 % of control

C=C(C)[C@H]1Cc2c(ccc3c2O[C@@H]2COc4cc(OC)c(OC)cc4[C@@H]2C3=O)O1
T/C (dose: 3.13 mg/kg/injection, vehicle: saline): 66 % of control
T/C (dose: 12.5 mg/kg/injection, vehicle: saline): 86 % of control
T/C (dose: 25.0 mg/kg/injection, vehicle: saline): 76 % of control

Cn1cnc([N+](=O)[O-])c1[Se]c1nc(N)nc2nc[nH]c12
T/C (dose: 12.5 mg/kg/injection, vehicle: water): 103 % of control
T/C [4]: 84 % of control
T/C (dose: 50.0 mg/kg/injection, vehicle: water): 60 % of control

Nc1nc(N)c2cc(CNc3ccc(C(=O)NC(CC(=O)O)CC(=O)O)cc3)ccc2n1
T/C [1]: 75 % of control
T/C [2]: 49 % of control

COc1cccc2c1C(=O)c1c(O)c3c(c(O)c1C2=O)C[C@@](O)(C(C)=O)C[C@@H]3OC1CC(N)C(O)C(C)O1 (some centres not stated)
T/C (dose: 1.0 mg/kg/injection, vehicle: saline): 72 % of control

Cc1cc(N(CCOS(C)(=O)=O)CCOS(C)(=O)=O)ccc1C=Nc1ccc(-c2nc(Cc3ccccc3)sc2C)cc1
T/C [1]: 46 % of control
T/C [2]: -84 % of control
T/C [3]: -73 % of control

O=CC(S)CO (configuration not stated)
T/C [7]: 61 % of control

Cc1c(N)nc([C@H](CC(N)=O)NC[C@H](N)C(N)=O)nc1C(=O)N[C@H](C(=O)N[C@H](C)[C@@H](O)CC(=O)N[C@H](C(=O)NC(O[C@@H]1O[C@@H](C)[C@@H](N)[C@@H](O)[C@H]1O)C(O)c1nc(-c2nc(C(=O)NCCCCN)cs2)cs1)[C@@H](C)O)[C@@H](O[C@@H]1O[C@@H](CO)[C@@H](O)[C@H](O)[C@@H]1O[C@H]1O[C@H](CO)[C@@H](O)[C@H](OC(N)=O)[C@@H]1O)c1c[nH]cn1 (some centres not stated)
T/C (dose: 2.0 mg/kg/injection, vehicle: saline): 84 % of control
T/C (dose: 4.0 mg/kg/injection, vehicle: saline): 47 % of control
T/C (dose: 8.0 mg/kg/injection, vehicle: saline): 42 % of control
T/C (dose: 32.0 mg/kg/injection, vehicle: saline): 7 % of control and 21 % of control and 29 % of control
T/C (dose: 64.0 mg/kg/injection, vehicle: saline): 32 % of control

CC[C@](O)(C(=O)O)c1cc2n(c(=O)c1CO)Cc1cc3ccccc3nc1-2
T/C (dose: 4.5 mg/kg/injection, vehicle: saline): 122 % of control
T/C (dose: 9.0 mg/kg/injection, vehicle: saline): 97 % of control
T/C (dose: 16.0 mg/kg/injection, vehicle: saline): 44 % of control
T/C (dose: 18.0 mg/kg/injection, vehicle: saline): 59 % of control
T/C (dose: 36.0 mg/kg/injection, vehicle: saline): 70 % of control

CNC=O
T/C [7]: 7 % of control and 29 % of control
T/C [6]: -1 % of control and 17 % of control
T/C (dose: 800.0 mg/kg/injection, vehicle: saline): -12 % of control
T/C (dose: 1600.0 mg/kg/injection, vehicle: saline): -64 % of control

C=CC(=O)N1CN(C(=O)C=C)CN(C(=O)C=C)C1
T/C [5]: 52 % of control
